According to PubChem BioAssay AID1259407 (Chemical Carcinogenesis Research Information System (CCRIS), 2018):
Activity calls are given as the source filed them. No rule for the calls is given here.

Tested on: CCRIS mutagenicity, Ames/micronucleus/aberration tests
Assay: CCRIS mutagenicity studies
[1] = Test System: AMES SALMONELLA TYPHIMURIUM, Strain/Indicator: TA97, Metabolic Activation: NONE, Method: PREINCUBATION
[2] = Test System: AMES SALMONELLA TYPHIMURIUM, Strain/Indicator: TA98, Metabolic Activation: HAMSTER, LIVER, S-9, AROCLOR 1254 (10 OR 30%), Method: PREINCUBATION
[3] = Test System: AMES SALMONELLA TYPHIMURIUM, Strain/Indicator: TA98, Metabolic Activation: NONE, Method: PREINCUBATION
[4] = Test System: AMES SALMONELLA TYPHIMURIUM, Strain/Indicator: TA98, Metabolic Activation: NONE, Method: STANDARD PLATE
[5] = Test System: AMES SALMONELLA TYPHIMURIUM, Strain/Indicator: TA98, Metabolic Activation: RAT, LIVER, S-9, AROCLOR 1254 (10 OR 30%), Method: PREINCUBATION
[6] = Test System: AMES SALMONELLA TYPHIMURIUM, Strain/Indicator: TA100, Metabolic Activation: HAMSTER, LIVER, S-9, AROCLOR 1254 (10 OR 30%), Method: PREINCUBATION
[7] = Test System: AMES SALMONELLA TYPHIMURIUM, Strain/Indicator: TA100, Metabolic Activation: NONE, Method: PREINCUBATION
[8] = Test System: AMES SALMONELLA TYPHIMURIUM, Strain/Indicator: TA100, Metabolic Activation: NONE, Method: STANDARD PLATE
[9] = Test System: AMES SALMONELLA TYPHIMURIUM, Strain/Indicator: TA100, Metabolic Activation: RAT, LIVER, S-9, AROCLOR 1254 (10 OR 30%), Method: PREINCUBATION
[10] = Test System: AMES SALMONELLA TYPHIMURIUM, Strain/Indicator: TA1535, Metabolic Activation: NONE, Method: PREINCUBATION

## CN1C(=O)CN=C(c2ccccc2)c2cc(Cl)ccc21
End Point: IN VITRO MICRONUCLEUS, Test System: V79 CELLS, Metabolic Activation: NONE
  mutagenic call: active; positive
End Point: IN VIVO CHROMOSOMAL ABERRATIONS, Test System: PERIPHERAL BLOOD LYMPHOCYTES, Species: HUMAN, Strain/Sex: MALE, FEMALE, Route: IV
  mutagenic call: inactive; negative
Test System: AMES SALMONELLA TYPHIMURIUM, Strain/Indicator: TA97, Metabolic Activation: HAMSTER, LIVER, S-9, AROCLOR 1254 (10 OR 30%), Method: PREINCUBATION
  mutagenic call: inactive; negative
[1]
  mutagenic call: inactive; negative
Test System: AMES SALMONELLA TYPHIMURIUM, Strain/Indicator: TA97, Metabolic Activation: RAT, LIVER, S-9, AROCLOR 1254 (10 OR 30%), Method: PREINCUBATION
  mutagenic call: inactive; negative
[2]
  mutagenic call: inactive; negative
[3]
  mutagenic call: inactive; negative
[4]
  mutagenic call: inactive; negative
[5]
  mutagenic call: inactive; negative
Test System: AMES SALMONELLA TYPHIMURIUM, Strain/Indicator: TA98, Metabolic Activation: RAT, LIVER, S-9, AROCLOR 1254, Method: STANDARD PLATE
  mutagenic call: inactive; negative
[6]
  mutagenic call: inactive; negative
[7]
  mutagenic call: inactive; negative
[8]
  mutagenic call: inactive; negative
[9]
  mutagenic call: inactive; negative
Test System: AMES SALMONELLA TYPHIMURIUM, Strain/Indicator: TA100, Metabolic Activation: RAT, LIVER, S-9, AROCLOR 1254, Method: STANDARD PLATE
  mutagenic call: inactive; negative
Test System: AMES SALMONELLA TYPHIMURIUM, Strain/Indicator: TA1535, Metabolic Activation: HAMSTER, LIVER, S-9, AROCLOR 1254 (10 OR 30%), Method: PREINCUBATION
  mutagenic call: inactive; negative
[10]
  mutagenic call: inactive; negative
Test System: AMES SALMONELLA TYPHIMURIUM, Strain/Indicator: TA1535, Metabolic Activation: NONE, Method: STANDARD PLATE
  mutagenic call: inactive; negative
Test System: AMES SALMONELLA TYPHIMURIUM, Strain/Indicator: TA1535, Metabolic Activation: RAT, LIVER, S-9, AROCLOR 1254 (10 OR 30%), Method: PREINCUBATION
  mutagenic call: inactive; negative
Test System: AMES SALMONELLA TYPHIMURIUM, Strain/Indicator: TA1535, Metabolic Activation: RAT, LIVER, S-9, AROCLOR 1254, Method: STANDARD PLATE
  mutagenic call: inactive; negative
Test System: AMES SALMONELLA TYPHIMURIUM, Strain/Indicator: TA1537, Metabolic Activation: HAMSTER, LIVER, S-9, AROCLOR 1254 (30%), Method: PREINCUBATION
  mutagenic call: inactive; negative
Test System: AMES SALMONELLA TYPHIMURIUM, Strain/Indicator: TA1537, Metabolic Activation: NONE, Method: PREINCUBATION
  mutagenic call: inactive; negative
Test System: AMES SALMONELLA TYPHIMURIUM, Strain/Indicator: TA1537, Metabolic Activation: NONE, Method: STANDARD PLATE
  mutagenic call: inactive; negative
Test System: AMES SALMONELLA TYPHIMURIUM, Strain/Indicator: TA1537, Metabolic Activation: RAT, LIVER, S-9, AROCLOR 1254 (30%), Method: PREINCUBATION
  mutagenic call: inactive; negative
Test System: AMES SALMONELLA TYPHIMURIUM, Strain/Indicator: TA1537, Metabolic Activation: RAT, LIVER, S-9, AROCLOR 1254, Method: STANDARD PLATE
  mutagenic call: inactive; negative

## Cc1cccn2c1nc1ccc(NO)nc12
[3]
  mutagenic call: active; positive
Test System: AMES SALMONELLA TYPHIMURIUM, Strain/Indicator: YG1020, Metabolic Activation: NONE, Method: PREINCUBATION
  mutagenic call: active; positive
Test System: AMES SALMONELLA TYPHIMURIUM, Strain/Indicator: YG1021, Metabolic Activation: NONE, Method: PREINCUBATION
  mutagenic call: active; positive
Test System: AMES SALMONELLA TYPHIMURIUM, Strain/Indicator: YG1024, Metabolic Activation: NONE, Method: PREINCUBATION
  mutagenic call: active; positive
Test System: AMES SALMONELLA TYPHIMURIUM, Strain/Indicator: YG1025, Metabolic Activation: NONE, Method: PREINCUBATION
  mutagenic call: inactive; negative
Test System: AMES SALMONELLA TYPHIMURIUM, Strain/Indicator: YG1029, Metabolic Activation: NONE, Method: PREINCUBATION
  mutagenic call: active; positive
Test System: AMES SALMONELLA TYPHIMURIUM, Strain/Indicator: YG1041, Metabolic Activation: NONE, Method: PREINCUBATION
  mutagenic call: active; positive

## CCN(CC)C(=O)c1cccc(C)c1
End Point: In vitro chromosomal aberrations, Test System: Chinese hamster ovary (CHO-K1) cells, Metabolic Activation: None
  mutagenic call: inactive; negative
End Point: In vitro chromosomal aberrations, Test System: Chinese hamster ovary (CHO-K1) cells, Metabolic Activation: Rat, Liver, S-9, Aroclor 1254
  mutagenic call: inactive; negative
Test System: AMES SALMONELLA TYPHIMURIUM, Strain/Indicator: TA97, Metabolic Activation: HAMSTER, LIVER, S-9, AROCLOR 1254 (10%), Method: PREINCUBATION
  mutagenic call: inactive; negative
Test System: AMES SALMONELLA TYPHIMURIUM, Strain/Indicator: TA97, Metabolic Activation: HAMSTER, LIVER, S-9, AROCLOR 1254 (30%), Method: PREINCUBATION
  mutagenic call: inactive; negative
[1]
  mutagenic call: inactive; negative
Test System: AMES SALMONELLA TYPHIMURIUM, Strain/Indicator: TA97, Metabolic Activation: RAT, LIVER, S-9, AROCLOR 1254 (10%), Method: PREINCUBATION
  mutagenic call: inactive; negative
Test System: AMES SALMONELLA TYPHIMURIUM, Strain/Indicator: TA97, Metabolic Activation: RAT, LIVER, S-9, AROCLOR 1254 (30%), Method: PREINCUBATION
  mutagenic call: inactive; negative
[2]
  mutagenic call: inactive; negative
[3]
  mutagenic call: inactive; negative
[5]
  mutagenic call: inactive; negative
[6]
  mutagenic call: inactive; negative
[7]
  mutagenic call: inactive; negative
[9]
  mutagenic call: inactive; negative
Test System: AMES SALMONELLA TYPHIMURIUM, Strain/Indicator: TA1535, Metabolic Activation: HAMSTER, LIVER, S-9, AROCLOR 1254 (10%), Method: PREINCUBATION
  mutagenic call: inactive; negative
Test System: AMES SALMONELLA TYPHIMURIUM, Strain/Indicator: TA1535, Metabolic Activation: HAMSTER, LIVER, S-9, AROCLOR 1254 (30%), Method: PREINCUBATION
  mutagenic call: inactive; negative
[10]
  mutagenic call: inactive; negative
Test System: AMES SALMONELLA TYPHIMURIUM, Strain/Indicator: TA1535, Metabolic Activation: RAT, LIVER, S-9, AROCLOR 1254 (10%), Method: PREINCUBATION
  mutagenic call: inactive; negative
Test System: AMES SALMONELLA TYPHIMURIUM, Strain/Indicator: TA1535, Metabolic Activation: RAT, LIVER, S-9, AROCLOR 1254 (30%), Method: PREINCUBATION
  mutagenic call: inactive; negative

## COC(=O)c1cc(-c2ccc(N)c(C(=O)OC)c2)ccc1N
Test System: AMES SALMONELLA TYPHIMURIUM, Strain/Indicator: TA98(1,8-DNP6), Metabolic Activation: NONE, Method: STANDARD PLATE
  mutagenic call: inactive; negative
Test System: AMES SALMONELLA TYPHIMURIUM, Strain/Indicator: TA98(1,8-DNP6), Metabolic Activation: S-9, Method: STANDARD PLATE
  mutagenic call: active; positive
[4]
  mutagenic call: inactive; negative
Test System: AMES SALMONELLA TYPHIMURIUM, Strain/Indicator: TA98, Metabolic Activation: S-9, Method: STANDARD PLATE
  mutagenic call: active; positive
[8]
  mutagenic call: inactive; negative
Test System: AMES SALMONELLA TYPHIMURIUM, Strain/Indicator: TA100, Metabolic Activation: S-9, Method: STANDARD PLATE
  mutagenic call: inactive; negative
